# Reference: PMC4820240 (Angewandte Chemie (International ed. in English), 2016)
# Key:
# [1] = tested on: A549 cells; assay: Cytotoxicity of CPPs towards A549 cells; assay type: cell-based; conditions: read-out: IC50 A549; toxicity towards A549 cells
# [2] = tested on: HeLa cells; conditions: read-out: IC50 HeLa; toxicity towards HeLa cells
# [3] = tested on: MCF-7 cells; conditions: read-out: IC50 MCF-7; toxicity towards MCF-7 cells
# [4] = tested on: human RBCs; conditions: read-out: EC50 RBCs (hemolysis); freshly isolated human RBCs
# [5] = Serum stability in 25% serum solution; conditions: 25% serum solution as a function of time (Figure 4B legend)
SMILES,IC50 [1] [µM],IC50 [2] [µM],IC50 [3] [µM],EC50 [4] [µM],"t1/2, serum stability [5] [h]"
N=C(N)NCCC[C@H](NC(=O)[C@H](CCCNC(=N)N)NC(=O)[C@H](CCCNC(=N)N)NC(=O)[C@H](CCCNC(=N)N)NC(=O)[C@H](CCCNC(=N)N)NC(=O)[C@H](CCCNC(=N)N)NC(=O)[C@H](CCCNC(=N)N)NC(=O)[C@@H](N)CCCNC(=N)N)C(N)=O [R8],> 1000,269,170,371,
N=C(N)NCCC[C@H](NC(=O)CN)C(=O)N[C@@H](CCCCN)C(=O)N[C@@H](CCCCN)C(=O)N[C@@H](CCCNC(=N)N)C(=O)N[C@@H](CCCNC(=N)N)C(=O)N[C@@H](CCC(N)=O)C(=O)N[C@@H](CCCNC(=N)N)C(=O)N[C@@H](CCCNC(=N)N)C(=O)N[C@@H](CCCNC(=N)N)C(=O)N1CCC[C@H]1C(=O)N1CCC[C@H]1C(=O)N[C@@H](CCC(N)=O)C(N)=O [TAT],> 1000,> 1000,603,269,1.7
